Measured values taken from patent US20230100062A1, “ANTIMICROBIAL PEPTIDES” (priority 2019, published 2023).

What was measured:
Hemolysis assay = format: cell-based, human; conditions: human, human erythrocytes, 10% (vol/vol) suspension, pH 7.2
Procedure: Hemolysis assay. Hemolysis was determined using human erythrocytes sourced commercially from Cambridge Bioscience Ltd. and used within two days. 10% (vol/vol) suspensions of human erythrocytes were incubated with NI01, its derivatives or antibiotics. The cells were rinsed four times in 10 mM phosphate buffer saline (PBS, GibcoTM), pH 7.2, by repeated centrifugation and re-suspension (3 min at 3000×g). The cells were then incubated at room temperature for 1 h in either deionized water (fully hemolysed control), PBS, or with a corresponding antimicrobial agent in PBS. After centrifugation at 10,000×g for 5 min, the supernatant was separated from the pellet, and the absorbance was measured at 550 nm using a SpectraMax i3× Multi-Mode Microplate Reader (Molecular Devices). Absorbance of the suspension treated with deionized water defined complete hemolysis. The values given in Table S2 correspond to concentrations needed to lyse half of the sample population (50% lysis of erythrocytes) and are expressed as median hemolytic doses—HD50.

EMRSA (12817) = format: cell-based, S. aureus
Procedure: (§1) Minimum Inhibitory Concentrations assay. Minimum inhibitory concentrations (MICs) were determined by broth microdilution on P. aeruginosa, E. coli, S. aureus, M. luteus, B. subtilis, S. typhimurium and K. pneumoniae according to the Clinical and Laboratory Standards Institute. Typically, 100 μL of 0.5-1×10^6 CFU per ml of each bacterium in Mueller Hinton media broth (Oxoid) were incubated in 96-well microtiter plates with 100 μL of serial two-fold dilutions of the corresponding antimicrobial agent (from 100 to 0 μM) at 37° C. on a 3D orbital shaker. The absorbance was measured after the addition of NI01, its derivatives or an antibiotic at 600 nm using a SpectraMax i3× Multi-Mode Microplate Reader (Molecular Devices). MICs were defined as the lowest protein concentration that inhibited visible bacterial growth after 24 h at 37° C.

EMRSA (12873) = format: cell-based, S. aureus
Procedure: as §1

EMRSA (12845) = format: cell-based, S. aureus
Procedure: as §1

E. coli (ATCC 15597) = experiment: microbe, parasite or virus in culture; format: cell-based; conditions: ATCC 15597, 24 h
Procedure: as §1

S. aureus (ATCC 6538) = experiment: microbe, parasite or virus in culture; format: cell-based; conditions: ATCC 6538, 24 h
Procedure: as §1

[1] = tested on: K. pneumoniae (NCTC 5055); experiment: microbe, parasite or virus in culture; format: cell-based; conditions: NCTC 5055, 24 h
Procedure: as §1

[2] = tested on: P. aeruginosa (ATCC 27853); experiment: microbe, parasite or virus in culture; format: cell-based; conditions: ATCC 27853, 24 h
Procedure: as §1

B. subtilis (ATCC 6633) = experiment: microbe, parasite or virus in culture; format: cell-based; conditions: ATCC 6633, 24 h
Procedure: as §1

M. luteus (ATCC 49732) = experiment: microbe, parasite or virus in culture; format: cell-based; conditions: ATCC 49732, 24 h
Procedure: as §1

[3] = In-liquid AFM imaging of SLBs mimicking bacterial membranes; conditions: 0.25 μM
Description: Lipid Vesicle Preparation. 1-palmitoyl-2-oleoyl-glycero-3-phosphocholine (POPC) with 1-palmitoyl-2-oleoyl-sn-glycero-3-phospho-(1′-rac-glycerol) (POPG) lipids used for vesicle construction were from Avanti Polar Lipids (Alabaster, USA). POPC was used as mammalian model membranes, and POPC/POPG (3:1, molar ratios) was used as bacterial model membranes. The lipids were weighted up, dissolved in chloroform-methanol (2:1, vol/vol), and dried under a nitrogen stream to form a thin film. The film was hydrated in 10 mM phosphate buffer (pH 7.4), vortexed for 2 min and bath sonicated for 30 min. The obtained suspension was extruded using a hand-held extruder (Avanti Polar lipids) (29 times, polycarbonate filter, 0.05 μm) to give a clear solution of small unilamellar vesicles, which were analysed (50 nm) by photon correlation spectroscopy (ZEN3600; Malvern Instruments, UK) following the re-suspension of vesicles to a final concentration of 1 mg/mL. Dynamic light scattering batch measurements were carried out in a low volume disposable cuvette at 25° C. Hydrodynamic radii were obtained through the fitting of autocorrelation data using the manufacturer's Dispersion Technology Software (version 5.10).
Preparation of SLBs for in-liquid AFM imaging. SLBs were formed using a vesicle fusion method as described elsewhere.^19 Freshly prepared vesicles (1.5 μL, 3 mg/mL) were added to cleaved mica that was pre-hydrated in 20 mM MOPS, 120 mM NaCl, 20 mM MgCl2 (pH 7.4).
After incubation over 45 min, the samples were washed 10 times with imaging buffer (20 mM MOPS, with 120 mM NaCl, pH 7.4) to remove unfused vesicles. The resulting SLBs were checked to confirm they were defect free. Mica discs (Agar Scientific, Stansted, UK) were glued to a metal puck, and freshly cleaved prior to lipid deposition.
In-liquid AFM imaging of SLBs. The topographic imaging of SLBs in aqueous buffers was performed on a Multimode 8 AFM system (Bruker AXS, USA) using Peak Force Tapping™ mode and MSNL-E cantilevers (Bruker AFM probes, USA). Images were taken at the PeakForce frequency of 2 kHz, PeakForce amplitude of 10-20 nm and PeakForce set-point of 10-30 mV (<100 pN). The images were then processed using Gwyddion (http://gwyddion.net) for line-by-line background subtraction (flattening) and plane fitting. NI01 or its derivatives were introduced into a 100-μL fluid cell (Bruker AXS, USA) to the final concentrations stated.

With “H-MAAFMKLIQFLATKGQKYVSLAWKHKGTILKWIN-NH2 [α1α2α3]” the HC50 at 1 h (Hemolysis assay) was 200 µg/mL, the “Minimum Inhibitory Concentration” value (EMRSA (12817)) was 32 µg/mL and the “Minimum Inhibitory Concentration” value (EMRSA (12873)) was 32 µg/mL. The “Minimum Inhibitory Concentration” value (EMRSA (12845)) was 32 µg/mL, the “Minimum Inhibitory Concentration” value (E. coli (ATCC 15597)) was 6 µg/mL and the “Minimum Inhibitory Concentration” value (S. aureus (ATCC 6538)) was 6 µg/mL. The “Minimum Inhibitory Concentration” value [1] was 20 µg/mL, the “Minimum Inhibitory Concentration” value [2] was 12 µg/mL and the “Minimum Inhibitory Concentration” value (B. subtilis (ATCC 6633)) was 6 µg/mL. The “Minimum Inhibitory Concentration” value (M. luteus (ATCC 49732)) was 6 µg/mL and the “mode of membrane disruption (AFM)” value [3] was “two predicted modes of membrane disruption were evident”.
